Measured values taken from patent publication US9566269B2, “Modified release compositions of epalrestat or a derivative thereof and methods for using the same” (Bionevia Pharmaceuticals Inc., priority 2011, dated 2017).

Tests used:
[1] = Ionization study in different pH environments (calculated from pKa); format: physicochemical
Method: The percentage ionization of Epalrestat in different pH environments of the human gastrointestinal tract was calculated based on the pKa value (3.61).

[2] = cited from earlier work
[3] = cited from earlier work; remark: listed apart in the source
[4] = immediate release 50 mg dosage, healthy adult volunteers

Question: Which “% Ionized” value ([1]; pH 1.2) does the source give for `C/C(C=C1SC(=S)N(CC(=O)O)C1=O)=C\c1ccccc1` (single isomer, unassigned) [epalrestat, 5-[(1Z,2E)-2-methyl-3-phenylpropenylidene]-4-oxo-2-thioxo-3-thiazolidineacetic acid] here?
Answer: 0%

Question: What about the “% Ionized” value ([1]; pH 3.0) of the same compound?
Answer: 20.0%

Question: And the “% Ionized” value ([1]; pH 3.5)?
Answer: 44.0%

Question: What about the “% Ionized” value ([1]; pH 4.0) of the same compound?
Answer: 71.0%

Question: And the “% Ionized” value ([1]; pH 4.5)?
Answer: 89.0%

Question: And the “% Ionized” value ([1]; pH 5.0)?
Answer: 96.0%

Question: What about the “% Ionized” value ([1]; pH 5.5) of the same compound?
Answer: 99.0%

Question: And the “% Ionized” value ([1]; pH 6.0)?
Answer: 100.0%

Question: What about the “% Ionized” value ([1]; pH 6.8) of the same compound?
Answer: 100.0%

Question: What about the pKa value [2] of the same compound?
Answer: 3.61

Question: What about the Plasma level ([3]; 4 hours after administration of 50 mg tablets of epalrestat free acid) of the same compound?
Answer: 370 ng/mL

Question: What about the Cmax [3, 4] of the same compound?
Answer: 3900 ng/mL

Question: And the t1/2 [3, 4]?
Answer: 1.8 h

Question: And the tmax [3, 4]?
Answer: 1.05 h

Question: What about the “total AUC0-∞” value [3, 4] of the same compound?
Answer: 6400 ng·h/mL
